Assay results reported in patent US20260184712A1, “Heterocyclic Compounds as ENT Inhibitors and Compounds for Use in the Treatment of Cancers” (iTeos Belgium SA, priority 2022, published 2026).

Molecular target: T1, human ENT1 (Homo sapiens, UniProt Q99808)
T1 construct: JAR cells expressing ENT1 were purchased from ATCC; host or cells: JAR cells
T1 sequence (Q99808 1-456): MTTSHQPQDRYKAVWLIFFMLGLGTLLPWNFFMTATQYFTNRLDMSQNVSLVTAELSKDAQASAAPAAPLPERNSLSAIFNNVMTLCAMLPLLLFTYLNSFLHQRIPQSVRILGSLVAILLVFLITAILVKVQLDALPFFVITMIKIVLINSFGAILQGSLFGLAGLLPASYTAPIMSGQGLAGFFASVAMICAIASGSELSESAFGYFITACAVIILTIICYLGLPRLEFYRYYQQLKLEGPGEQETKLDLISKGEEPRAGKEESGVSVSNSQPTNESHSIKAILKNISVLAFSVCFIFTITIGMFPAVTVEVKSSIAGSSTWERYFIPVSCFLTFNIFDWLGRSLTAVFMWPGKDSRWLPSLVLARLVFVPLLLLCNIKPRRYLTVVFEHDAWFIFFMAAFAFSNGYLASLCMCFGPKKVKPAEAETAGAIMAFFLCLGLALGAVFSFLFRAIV
Test: ENT1 binding assay (competition with Sahenta-DY647 on JAR cells)
Conditions: competition with SAHENTA-DY647 binding; IC50 categorized; read-out: Binding Assay IC50
Method in brief: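 Fluorescent-tracer displacement: compound incubated with JAR cells 30 min, 4 °C, before Sahenta-DY647 (100 nM) for another 30 min, 4 °C, in Hepes-buffered HBSS with 0.1% BSA. Bound tracer read at 670 nm after washes; IC50 from four-parameter fit, reported as mean of pIC50 values.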

| SMILES | IC50 [nM] |
| --- | --- |
| CCOc1ccc(CNC(=O)c2ncnc3c2ncn3[C@@H]2O[C@H](C)[C@@H](O)[C@H]2O)cc1 [Compound 350] | > 500 |
| COc1ccc(COc2ncnc3c2ncn3[C@@H]2O[C@H](C)[C@@H](O)[C@H]2O)cc1C(F)(F)F [Compound 230] | > 500 |
| C[C@H]1O[C@@H](n2cnc3c(C4=Cc5cc([N+](=O)[O-])ccc5CC4)ncnc32)[C@H](O)[C@@H]1O [Compound 192] | 20 to 500 |
| C[C@H]1O[C@@H](n2cnc3c(COCc4ccc(Cl)cc4)ncnc32)[C@H](O)[C@@H]1O [Compound 290] | > 500 |
| CC1OC(n2c(NC3CCC(C)(O)CC3)nc3c(OCc4ccc([N+](=O)[O-])cc4)ncnc32)C(O)C1O (single isomer, unassigned) [Compound 118] | 1 to 20 |
| C[C@H]1O[C@@H](n2c(N[C@H]3CC[C@@](C)(O)CC3)nc3c(N4CCc5ccc([N+](=O)[O-])cc5C4)ncnc32)[C@H](O)[C@@H]1O [Compound 139] | < 1 |
| COc1ccc(COc2ncnc3c2ncn3[C@@H]2O[C@H](C)[C@@H](O)[C@H]2O)cc1OC1CCCC1 [Compound 346] | > 500 |
| C[C@H]1O[C@@H](n2c(N[C@H]3C[C@](C)(O)C3)nc3c(OCc4ccc(OC(F)F)cc4)ncnc32)[C@H](O)[C@@H]1O [Compound 124] | < 1 |
| C[C@H]1O[C@@H](n2cnc3c(N4CCN(c5ccc([N+](=O)[O-])cc5)CC4)ncnc32)[C@H](O)[C@@H]1O [Compound 299] | > 500 |
| C[C@H]1O[C@@H](n2c(NCCO)nc3c(N4CCc5ccc(C#N)cc5C4)ncnc32)[C@H](O)[C@@H]1O [Compound 167] | 20 to 500 |
| C[C@H]1O[C@@H](n2c(NCCCO)nc3c(OCc4ccc(C#N)cc4)ncnc32)[C@H](O)[C@@H]1O [Compound 43] | 20 to 500 |
| Cc1cn(C2OC(C)C(O)C2O)c2ncnc(SCc3ccc([N+](=O)[O-])cc3)c12 (single isomer, unassigned) [Compound 194] | 20 to 500 |
| Cc1ccc2nc(CSc3ncnc4c3ncn4[C@@H]3O[C@H](C)[C@@H](O)[C@H]3O)cn2c1 [Compound 396] | > 500 |
| C[C@H]1O[C@@H](n2cnc3c(OCCc4ccc(C#N)c(F)c4)ncnc32)[C@H](O)[C@@H]1O [Compound 232] | > 500 |
| O=[N+]([O-])c1ccc(COc2ncnc3c2ncn3[C@H]2C[C@H](O)[C@@H](CO)O2)cc1 [Compound 405] | > 500 |
| C[C@H]1O[C@@H](n2c(N[C@@H]3CCC(F)(F)C3)nc3c(OCc4ccc([N+](=O)[O-])cc4)ncnc32)[C@H](O)[C@@H]1O [Compound 83] | < 1 |
| C[C@H]1O[C@@H](n2c(N[C@H]3C[C@@H](O)C3)nc3c(OCc4ccc([N+](=O)[O-])cc4)ncnc32)[C@H](O)[C@@H]1O [Compound 48] | 1 to 20 |
| C[C@H]1O[C@@H](n2cnc3c(CN4Cc5ccc(C#N)cc5C4)ncnc32)[C@H](O)[C@@H]1O [Compound 317] | > 500 |
| C[C@H]1O[C@@H](n2cnc3c(OCc4ncc(F)cc4F)ncnc32)[C@H](O)[C@@H]1O [Compound 362] | > 500 |
| C[C@H]1O[C@@H](n2cnc3c(NCc4cccc(C(=O)N(C)C)c4)ncnc32)[C@H](O)[C@@H]1O [Compound 379] | > 500 |
| C[C@H]1O[C@@H](n2cnc3c(C(=O)NCc4ccc(C#N)cc4)ncnc32)[C@H](O)[C@@H]1O [Compound 361] | > 500 |
| C[C@H]1O[C@@H](n2cnc3c(SCc4ncccn4)ncnc32)[C@H](O)[C@@H]1O [Compound 394] | > 500 |
| C[C@H]1O[C@@H](n2cnc3c(OCc4cc(Cl)cc(Cl)c4)ncnc32)[C@H](O)[C@@H]1O [Compound 217] | 20 to 500 |
| C[C@H]1O[C@@H](n2c(NCc3ncn(C)n3)nc3c(OCc4ccc(C#N)cc4)ncnc32)[C@H](O)[C@@H]1O [Compound 69] | 20 to 500 |

| SMILES | IC50 [nM] |
| --- | --- |
| C[C@H]1O[C@@H](n2cnc3c(SCc4ccc(C(=O)N5CCCC5)cc4)ncnc32)[C@H](O)[C@@H]1O [Compound 390] | > 500 |
| CC(C)Nc1nc2c(N3CCc4ccc([N+](=O)[O-])cc4C3)ncnc2n1[C@@H]1O[C@H](C)[C@@H](O)[C@H]1O [Compound 149] | 1 to 20 |
| C[C@H]1O[C@@H](n2cnc3c(OCc4ccc([N+](=O)[O-])cc4)nc(O)nc32)[C@H](O)[C@@H]1O [Compound 256] | > 500 |
| O=[N+]([O-])c1ccc(COc2ncnc3c2ncn3[C@@H]2O[C@H](CCCO)[C@@H](O)[C@H]2O)cc1 [Compound 218] | 20 to 500 |
| C[C@H]1O[C@@H](n2cnc3c(OCCc4ccc(OC(F)F)nc4)ncnc32)[C@H](O)[C@@H]1O [Compound 278] | > 500 |
| Cc1ncc(CNc2nc3c(OCc4ccc(C#N)cc4)ncnc3n2[C@@H]2O[C@H](C)[C@@H](O)[C@H]2O)cn1 [Compound 71] | 1 to 20 |
| C[C@H]1O[C@@H](n2c(Nc3cnn(C)c3)nc3c(OCc4ccc(C#N)cc4)ncnc32)[C@H](O)[C@@H]1O [Compound 63] | 20 to 500 |
| C[C@H]1O[C@@H](n2cnc3c(NCc4ccc(NS(C)(=O)=O)cc4)ncnc32)[C@H](O)[C@@H]1O [Compound 261] | > 500 |
| C[C@H]1O[C@@H](n2cnc3c(OCc4ccc(C(F)(F)F)cc4)ncnc32)[C@H](O)[C@@H]1O [Compound 204] | 20 to 500 |
| C[C@H]1O[C@@H](n2cnc3c(SCc4ccc(S(=O)(=O)N(C)C)cc4)ncnc32)[C@H](O)[C@@H]1O [Compound 366] | > 500 |
| C[C@H]1O[C@@H](n2cnc3c(NCCc4ccc([N+](=O)[O-])cc4)ncnc32)[C@H](O)[C@@H]1O [Compound 252] | > 500 |
| C[C@H]1O[C@@H](n2cnc3c(OCCc4cnc(CF)nc4)ncnc32)[C@H](O)[C@@H]1O [Compound 403] | > 500 |
| C[C@H]1O[C@@H](n2c(N[C@H]3C[C@](C)(O)C3)nc3c(OCc4ccc(C#N)cc4)ncnc32)[C@H](O)[C@@H]1O [Compound 120] | < 1 |
| OC[C@@H]1C[C@@H](O)[C@H](n2cnc3c(OCc4ccc(OC(F)F)cc4)ncnc32)O1 [Compound 303] | > 500 |
| CN(CCO)C(=O)[C@H]1O[C@@H](n2cnc3c(OCc4ccc([N+](=O)[O-])cc4)ncnc32)[C@H](O)[C@@H]1O [Compound 292] | > 500 |
| C[C@H]1OC(n2cnc3c(COc4ccc(C#N)c(F)c4)ncnc32)[C@H](O)[C@@H]1O (some centres unmarked) [Compound 258] | > 500 |
| C[C@H]1O[C@@H](n2cnc3c(OCc4ccc(-c5ccn(C)n5)cc4)ncnc32)[C@H](O)[C@@H]1O [Compound 383] | > 500 |
| C[C@H]1O[C@@H](n2cnc3c(OCc4cscn4)ncnc32)[C@H](O)[C@@H]1O [Compound 321] | > 500 |
| C[C@H]1O[C@@H](n2c(N[C@H]3CC[C@H](O)CC3)nc3c(OCc4ccc([N+](=O)[O-])cc4)ncnc32)[C@H](O)[C@@H]1O [Compound 57] | < 1 |
| C[C@H]1O[C@@H](n2cnc3c(COc4ccc(OCF)cc4)ncnc32)[C@H](O)[C@@H]1O [Compound 296] | > 500 |
| C[C@H]1O[C@@H](n2cnc3c(OCCc4ccc(=O)n(C)c4)ncnc32)[C@H](O)[C@@H]1O [Compound 401] | > 500 |
| C[C@H]1O[C@@H](n2c(NC3CCCC3)nc3c(OCc4ccc([N+](=O)[O-])nc4)ncnc32)[C@H](O)[C@@H]1O [Compound 85] | < 1 |
| C[C@H]1O[C@@H](n2cnc3c(OCc4cccc(S(C)(=O)=O)c4)ncnc32)[C@H](O)[C@@H]1O [Compound 332] | > 500 |
